According to ChEMBL document CHEMBL2331534, “Design, synthesis and biological evaluation of novel hybrid compounds of imidazole scaffold-based 2-benzylbenzofuran as potent anticancer agents” (Eur J Med Chem, 2013):
pIC50: −log10 of the molar value.

Legend:
Assay type in all cases: functional, cell-based
SMMC-7721 = test: Cytotoxicity against human SMMC7721 cells assessed as growth inhibition after 48 hrs by MTT assay; conditions: SMMC-7721, 48 h
MCF7 = test: Cytotoxicity against human MCF7 cells assessed as growth inhibition after 48 hrs by MTT assay; conditions: MCF7, 48 h
SW480 = test: Cytotoxicity against human SW480 cells assessed as growth inhibition after 48 hrs by MTT assay; conditions: SW480, 48 h
HL-60 = test: Cytotoxicity against human HL60 cells assessed as growth inhibition after 48 hrs by MTT assay; conditions: HL-60, 48 h
A549 = test: Cytotoxicity against human A549 cells assessed as growth inhibition after 48 hrs by MTT assay; conditions: A549, 48 h

| Compound | pIC50 (SMMC-7721) | pIC50 (MCF7) | pIC50 (SW480) | pIC50 (HL-60) | pIC50 (A549) |
| --- | --- | --- | --- | --- | --- |
| O=[N+]([O-])c1ccc(C[n+]2ccn(C(c3ccccc3)c3cc4ccccc4o3)c2)cc1 (stereo not given) | < 4.40 | < 4.40 | < 4.40 | < 4.40 | < 4.40 |
| Cc1n(C(c2ccccc2)c2cc3ccccc3o2)cc[n+]1CC(=O)c1ccc(Br)cc1 (stereo not given) | 4.96 | 4.82 | 4.84 | 5.48 | 4.58 |
| Cc1n(C(c2ccccc2)c2cc3ccccc3o2)cc[n+]1CC(=O)c1ccc(O)cc1 (stereo not given) | < 4.40 | < 4.40 | < 4.40 | < 4.40 | < 4.40 |
| COc1ccc(C(=O)C[n+]2ccn(C(c3ccccc3)c3cc4ccccc4o3)c2C)cc1 (stereo not given) | 5.28 | 5.01 | 4.84 | 5.78 | 5.10 |
| Cc1n(C(c2ccccc2)c2cc3ccccc3o2)cc[n+]1CC(=O)c1ccc2ccccc2c1 (stereo not given) | 5.37 | 5.65 | 5.35 | 5.73 | 5.07 |
| C=CC[n+]1ccn(C(c2ccccc2)c2cc3ccccc3o2)c1CC (stereo not given) | < 4.40 | < 4.40 | < 4.40 | < 4.40 | < 4.40 |
| CCCC[n+]1ccn(C(c2ccccc2)c2cc3ccccc3o2)c1CC (stereo not given) | < 4.40 | < 4.40 | < 4.40 | < 4.40 | < 4.40 |
| CCc1n(C(c2ccccc2)c2cc3ccccc3o2)cc[n+]1Cc1ccccc1 (stereo not given) | 5.15 | 5.28 | 5.43 | 5.69 | 5.19 |
| CCc1n(C(c2ccccc2)c2cc3ccccc3o2)cc[n+]1CC(=O)c1ccccc1 (stereo not given) | 4.98 | 4.86 | 4.72 | 5.58 | 4.86 |
| CCc1n(C(c2ccccc2)c2cc3ccccc3o2)cc[n+]1CC(=O)c1ccc(F)cc1 (stereo not given) | 4.96 | 4.86 | < 4.40 | 5.62 | 5.13 |
| CCc1n(C(c2ccccc2)c2cc3ccccc3o2)cc[n+]1CC(=O)c1ccc(Br)cc1 (stereo not given) | 5.21 | 5.02 | 4.81 | 5.53 | 4.85 |
| CCc1n(C(c2ccccc2)c2cc3ccccc3o2)cc[n+]1CC(=O)c1ccc(O)cc1 (stereo not given) | < 4.40 | < 4.40 | < 4.40 | < 4.40 | < 4.40 |
| CCc1n(C(c2ccccc2)c2cc3ccccc3o2)cc[n+]1CC(=O)c1ccc(OC)cc1 (stereo not given) | 5.15 | 5.02 | 4.77 | 5.66 | 5.27 |
| CCc1n(C(c2ccccc2)c2cc3ccccc3o2)cc[n+]1CC(=O)c1ccc2ccccc2c1 (stereo not given) | 5.35 | 5.38 | 4.79 | 5.73 | 5.49 |
| C=CC[n+]1cn(C(c2ccccc2)c2cc3ccccc3o2)c2ccccc21 (stereo not given) | < 4.40 | < 4.40 | < 4.40 | < 4.40 | < 4.40 |
| CCCC[n+]1cn(C(c2ccccc2)c2cc3ccccc3o2)c2ccccc21 (stereo not given) | 5.15 | 4.81 | 4.53 | 5.54 | 4.91 |
| c1ccc(C[n+]2cn(C(c3ccccc3)c3cc4ccccc4o3)c3ccccc32)cc1 (stereo not given) | 5.44 | 5.04 | 5.20 | 5.98 | 5.16 |
| O=[N+]([O-])c1ccc(C[n+]2cn(C(c3ccccc3)c3cc4ccccc4o3)c3ccccc32)cc1 (stereo not given) | 4.94 | 4.79 | 4.85 | 4.96 | < 4.40 |
| O=C(C[n+]1cn(C(c2ccccc2)c2cc3ccccc3o2)c2ccccc21)c1ccccc1 (stereo not given) | 5.27 | 5.02 | 4.81 | 5.57 | 4.84 |

| Compound | pIC50 (SMMC-7721) | pIC50 (MCF7) | pIC50 (SW480) | pIC50 (HL-60) | pIC50 (A549) |
| --- | --- | --- | --- | --- | --- |
| O=C(C[n+]1cn(C(c2ccccc2)c2cc3ccccc3o2)c2ccccc21)c1ccc(F)cc1 (stereo not given) | 5.40 | 4.92 | 4.87 | 5.68 | 5.04 |
| O=C(C[n+]1cn(C(c2ccccc2)c2cc3ccccc3o2)c2ccccc21)c1ccc(Br)cc1 (stereo not given) | 5.40 | 5.47 | 5.43 | 5.57 | 5.32 |
| O=C(C[n+]1cn(C(c2ccccc2)c2cc3ccccc3o2)c2ccccc21)c1ccc(O)cc1 (stereo not given) | < 4.40 | < 4.40 | < 4.40 | < 4.40 | < 4.40 |
| c1ccc(C(c2cc3ccccc3o2)n2cnc3ccccc32)cc1 (stereo not given) | < 4.40 | < 4.40 | < 4.40 | < 4.40 | < 4.40 |
| C=CC[n+]1ccn(C(c2ccccc2)c2cc3ccccc3o2)c1 (stereo not given) | < 4.40 | < 4.40 | < 4.40 | < 4.40 | < 4.40 |
| CCCC[n+]1ccn(C(c2ccccc2)c2cc3ccccc3o2)c1 (stereo not given) | < 4.40 | < 4.40 | < 4.40 | < 4.40 | < 4.40 |
| c1ccc(C[n+]2ccn(C(c3ccccc3)c3cc4ccccc4o3)c2)cc1 (stereo not given) | < 4.40 | < 4.40 | < 4.40 | < 4.40 | < 4.40 |
| O=C(C[n+]1ccn(C(c2ccccc2)c2cc3ccccc3o2)c1)c1ccccc1 (stereo not given) | < 4.40 | < 4.40 | < 4.40 | < 4.40 | < 4.40 |
| O=C(C[n+]1ccn(C(c2ccccc2)c2cc3ccccc3o2)c1)c1ccc(F)cc1 (stereo not given) | < 4.40 | < 4.40 | < 4.40 | < 4.40 | < 4.40 |
| O=C(C[n+]1ccn(C(c2ccccc2)c2cc3ccccc3o2)c1)c1ccc(Br)cc1 (stereo not given) | 5.26 | 4.92 | 4.81 | 5.58 | 4.81 |
| O=C(C[n+]1ccn(C(c2ccccc2)c2cc3ccccc3o2)c1)c1ccc(O)cc1 (stereo not given) | < 4.40 | < 4.40 | < 4.40 | < 4.40 | < 4.40 |
| COc1ccc(C(=O)C[n+]2ccn(C(c3ccccc3)c3cc4ccccc4o3)c2)cc1 (stereo not given) | 5.07 | 4.79 | 4.81 | 5.52 | 4.84 |
| O=C(C[n+]1ccn(C(c2ccccc2)c2cc3ccccc3o2)c1)c1ccc2ccccc2c1 (stereo not given) | 5.46 | 5.51 | 4.85 | 5.71 | 5.11 |
| C=CC[n+]1ccn(C(c2ccccc2)c2cc3ccccc3o2)c1C (stereo not given) | < 4.40 | < 4.40 | < 4.40 | < 4.40 | < 4.40 |
| CCCC[n+]1ccn(C(c2ccccc2)c2cc3ccccc3o2)c1C (stereo not given) | < 4.40 | < 4.40 | < 4.40 | < 4.40 | < 4.40 |
| Cc1n(C(c2ccccc2)c2cc3ccccc3o2)cc[n+]1Cc1ccccc1 (stereo not given) | < 4.40 | < 4.40 | < 4.40 | < 4.40 | < 4.40 |
| Cc1n(C(c2ccccc2)c2cc3ccccc3o2)cc[n+]1CC(=O)c1ccccc1 (stereo not given) | 4.83 | 4.99 | < 4.40 | 5.50 | 4.73 |
| Cc1n(C(c2ccccc2)c2cc3ccccc3o2)cc[n+]1CC(=O)c1ccc(F)cc1 (stereo not given) | 4.84 | 4.97 | 4.90 | 5.33 | 4.66 |
